Measured values published in patent publication US20250255867A1 (Kadmon Corporation, LLC, priority 2022, published 2025).

Experiment: Example 2: safety (AE, SAE, relative dose intensity)
Assay type: in vivo
Method: All responses were assessed by the study site investigators.

CC(C)NC(=O)COc1cccc(-c2nc(Nc3ccc4[nH]ncc4c3)c3ccccc3n2)c1 [Belumosudil, 2-{3-[4-(1H-indazol-5-ylamino)-2-quinazolinyl]phenoxy}-N-(propan-2-yl) acetamide]
Vomiting, all grades (200 mg daily (n = 66)): 18 (27) n (%)
ALT increased (200 mg twice daily (n = 66)): 7 (11) n (%)
AST increased (200 mg twice daily (n = 66)): 8 (12) n (%)
Any AE (200 mg twice daily (n = 66)): 66 (100) n (%)
Bilirubin conjugated increased (200 mg twice daily (n = 66)): 0 n (%)
Blood alkaline phosphatase increased (200 mg twice daily (n = 66)): 6 (9) n (%)
Cough, all grades (200 mg twice daily (n = 66)): 17 (26) n (%)
Deaths (200 mg twice daily (n = 66)): 6 (9) n (%)
Diarrhea, all grades (200 mg twice daily (n = 66)): 21 (32) n (%)
Drug-related AEs (200 mg twice daily (n = 66)): 40 (61) n (%)
Drug-related SAEs (200 mg twice daily (n = 66)): 2 (3) n (%)
Dyspnea, all grades (200 mg twice daily (n = 66)): 12 (18) n (%)
Fatigue, all grades (200 mg twice daily (n = 66)): 20 (30) n (%)
GGT increased (200 mg twice daily (n = 66)): 10 (15) n (%)
Grade ≥3 AEs (200 mg twice daily (n = 66)): 34 (52) n (%)
Headache, all grades (200 mg twice daily (n = 66)): 18 (27) n (%)
Hyperglycemia, Grade ≥3 (200 mg twice daily (n = 66)): 3 (5) n (%)
Hypertension, Grade ≥3 (200 mg twice daily (n = 66)): 4 (6) n (%)
Hypoalbuminemia (200 mg twice daily (n = 66)): 2 (3) n (%)
LFT increased (200 mg twice daily (n = 66)): 0 n (%)
Liver-related AEs (200 mg twice daily (n = 66)): 19 (29) n (%)
Muscle spasms, all grades (200 mg twice daily (n = 66)): 13 (20) n (%)
Nausea, all grades (200 mg twice daily (n = 66)): 18 (27) n (%)
Peripheral edema, all grades (200 mg twice daily (n = 66)): 13 (20) n (%)
Pneumonia, Grade ≥3 (200 mg twice daily (n = 66)): 4 (6) n (%)
SAEs (200 mg twice daily (n = 66)): 23 (35) n (%)
Transaminases increased (200 mg twice daily (n = 66)): 1 (2) n (%)
Upper respiratory tract infection, all grades (200 mg twice daily (n = 66)): 18 (27) n (%)
Vomiting, all grades (200 mg twice daily (n = 66)): 10 (15) n (%)
ALT increased (Total (N = 132)): 11 (8) n (%)
AST increased (Total (N = 132)): 13 (10) n (%)
Any AE (Total (N = 132)): 131 (99) n (%)
Bilirubin conjugated increased (Total (N = 132)): 1 (1) n (%)
Blood alkaline phosphatase increased (Total (N = 132)): 10 (8) n (%)
Cough, all grades (Total (N = 132)): 37 (28) n (%)
Diarrhea, all grades (Total (N = 132)): 44 (33) n (%)
Drug-related AEs (Total (N = 132)): 89 (67) n (%)
Drug-related SAEs (Total (N = 132)): 7 (5) n (%)
Dyspnea, all grades (Total (N = 132)): 33 (25) n (%)
Fatigue, all grades (Total (N = 132)): 50 (38) n (%)
GGT increased (Total (N = 132)): 16 (12) n (%)
Grade ≥3 AEs (Total (N = 132)): 71 (54) n (%)
Headache, all grades (Total (N = 132)): 31 (24) n (%)
Hyperglycemia, Grade ≥3 (Total (N = 132)): 6 (5) n (%)
Hypertension, Grade ≥3 (Total (N = 132)): 8 (6) n (%)
Hypoalbuminemia (Total (N = 132)): 4 (3) n (%)
LFT increased (Total (N = 132)): 1 (1) n (%)
Liver-related AEs (Total (N = 132)): 31 (24) n (%)
Muscle spasms, all grades (Total (N = 132)): 26 (20) n (%)
Nausea, all grades (Total (N = 132)): 41 (31) n (%)
Peripheral edema, all grades (Total (N = 132)): 30 (23) n (%)
Pneumonia, Grade ≥3 (Total (N = 132)): 10 (8) n (%)
SAEs (Total (N = 132)): 50 (38) n (%)
Transaminases increased (Total (N = 132)): 2 (2) n (%)
Upper respiratory tract infection, all grades (Total (N = 132)): 35 (27) n (%)
Vomiting, all grades (Total (N = 132)): 28 (21) n (%)
Deaths (Total (N = 132), six died during LTFU (>28 days after last dose)): 14 (11) n (%)
Discontinued because of overall AEs (in vivo): 21%
Discontinued because of possible drug-related AEs (in vivo): 12%
Grade 3 or 4 hyperglycemia (in vivo): 5%
Grade 3 or 4 hypertension (in vivo): 6%
Grade 3 or 4 pneumonia (in vivo): 8%
Grade ≥3 anemia (in vivo): 3%
Grade ≥3 cytopenias (in vivo): < 4%
Grade ≥3 neutropenia (in vivo): 2%
Grade ≥3 thrombocytopenia (in vivo): 2%
Increased GGT (liver-related AE) (in vivo): 12%
Median RDI (in vivo): 99.7%
SAE pneumonia, subjects (in vivo): 7%
Subjects who died during the study (in vivo): Fourteen
Subjects who received an RDI >95% (in vivo): Eighty-one
Subjects with >1 SAE (in vivo): Thirty eight
Subjects with increased liver function tests (LFTs) (in vivo): Twenty-four
Cases of Epstein-Barr viremia that required treatment (unrelated to belumosudil): 1 case
Cases of cytomegalovirus (CMV) reactivation (unrelated to belumosudil): 1 case
Cases of cytomegalovirus (CMV) reactivation (unrelated to belumosudil, listed as belumosudil): one
